One experiment deals with DKK-1. Briefly: Western blotting of DKK-1 with hair loss causing hormone DHT. The class given is cell-based, human. Particulars: HFDPC, 48 hours. As to the method: The cells were treated with DHT and the peptides for 48 hours, and then subjected to western blotting with respect to DKK-1 using specific antibodies, thereby observing the expression of DKK-1.
The human hair follicle dermal papilla cells were seeded on a 6-well plate at a density of 1×10^5 cells/well. The cells were stabilized by incubation overnight, and then treated with 5 μg/ml DHT (Sigma Aldrich) together with the peptides at different concentrations (1 μg/ml and 10 μg/ml) for 48 hours. The cells were treated with the cell lysis buffer to obtain a lysate, followed by protein quantification, and then western blotting was performed with respect to DKK-1 using anti-DKK-1 antibody (Santa Cruz Biotechnology, USA).
Background: A western blot detects proteins with antibodies after separation by electrophoresis.

For the next experiment, the target named is T1, HGFR (Homo sapiens, UniProt P08581).
T1 construct: purchased R&D Systems
T1 sequence (P08581 25-1390): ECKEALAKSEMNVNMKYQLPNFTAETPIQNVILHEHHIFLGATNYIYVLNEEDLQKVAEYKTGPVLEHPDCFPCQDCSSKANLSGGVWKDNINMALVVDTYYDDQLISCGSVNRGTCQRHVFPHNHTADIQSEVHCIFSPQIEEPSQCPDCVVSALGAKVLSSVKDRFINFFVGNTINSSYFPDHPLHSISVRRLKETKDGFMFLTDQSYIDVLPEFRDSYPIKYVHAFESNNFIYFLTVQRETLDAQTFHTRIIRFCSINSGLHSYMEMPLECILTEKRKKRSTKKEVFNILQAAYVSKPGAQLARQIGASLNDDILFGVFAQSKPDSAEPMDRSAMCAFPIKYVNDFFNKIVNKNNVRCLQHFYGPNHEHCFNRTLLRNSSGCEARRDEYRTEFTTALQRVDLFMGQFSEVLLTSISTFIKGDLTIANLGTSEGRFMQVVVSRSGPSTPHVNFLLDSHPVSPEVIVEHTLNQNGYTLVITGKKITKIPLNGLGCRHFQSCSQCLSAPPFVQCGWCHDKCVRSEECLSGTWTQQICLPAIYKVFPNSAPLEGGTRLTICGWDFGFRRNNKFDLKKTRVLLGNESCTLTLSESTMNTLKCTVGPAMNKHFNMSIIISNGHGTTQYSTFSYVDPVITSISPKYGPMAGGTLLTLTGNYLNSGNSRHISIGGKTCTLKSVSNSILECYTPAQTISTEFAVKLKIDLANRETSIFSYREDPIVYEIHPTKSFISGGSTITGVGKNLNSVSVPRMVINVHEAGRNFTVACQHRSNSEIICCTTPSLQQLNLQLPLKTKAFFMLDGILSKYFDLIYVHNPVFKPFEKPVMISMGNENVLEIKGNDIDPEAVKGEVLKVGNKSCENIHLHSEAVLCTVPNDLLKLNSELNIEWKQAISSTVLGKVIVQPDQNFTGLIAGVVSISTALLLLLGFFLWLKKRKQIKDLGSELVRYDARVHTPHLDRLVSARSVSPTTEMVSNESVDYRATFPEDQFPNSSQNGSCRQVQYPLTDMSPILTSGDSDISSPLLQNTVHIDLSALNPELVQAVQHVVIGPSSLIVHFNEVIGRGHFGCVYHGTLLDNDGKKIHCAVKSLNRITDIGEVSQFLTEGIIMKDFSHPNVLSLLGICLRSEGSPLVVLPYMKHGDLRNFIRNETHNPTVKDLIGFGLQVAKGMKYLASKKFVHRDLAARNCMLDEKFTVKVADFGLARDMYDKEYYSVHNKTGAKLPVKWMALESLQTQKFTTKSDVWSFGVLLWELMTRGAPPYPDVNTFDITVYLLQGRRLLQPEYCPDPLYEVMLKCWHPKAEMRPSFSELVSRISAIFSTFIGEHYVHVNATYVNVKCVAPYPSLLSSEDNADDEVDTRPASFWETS
Briefly: Receptor binding assay (HGFR), ELISA. The note with it: peptide coated 50 μg/25 μl, O.D. 450 nm. As to the method:
(§1) On an ELISA plate, 50 μg/25 μl peptide and 25 μl of a coating buffer (20 mM sodium phosphate pH 9.6) were added and mixed, and then incubated at 4° C. overnight. After washing three times with PBST (300 μl), the blocking with 200 μl of a blocking buffer (3% BSA) was carried out at room temperature for 2 hours. After washing three times with PBST (300 μl), HGFR (R&D Systems) was added at 0.5 μg/1 ml per well, followed by incubation at room temperature for 2 hours. After washing three times with PBST (300 μl), anti-human IgG-HRP was diluted at 1:1,000, which was then added at 100 μl per well, followed by incubation at room temperature for 2 hours. After washing three times with PBST (300 μl), 100 μl of TMB solution was added, followed by color development. 50 μl of a stop solution (3 N H2SO4) was added to stop the reaction, and then the absorbance was read at O.D. 450 nm.
(In general: In an ELISA, binding on a coated surface is turned into a signal by an enzyme label.)

In experiment [1] the test system is human hair follicle dermal papilla cells (HFDPC). As to the kind of experiment: Cell proliferation assay (SRB), HFDPC. The note with it: 1, 10 and 50 μg/ml, 72 hours. The class given is cell-based. As to the method: (§2) In order to observe the cell proliferation effect on human hair follicle dermal papilla cells, human hair follicle germinal matrix cells, and human umbilical vein endothelial cells, which are main hair cells, each type of cells were seeded on a 96-well plate at a density of 3×10^3 cells/well, followed by incubation under conditions of 37° C. and 5% CO2 for 24 hours. After the medium was exchanged with the same culture medium completely excluding serum, the cells were treated with the peptides at different concentrations (1 μg/ml, 10 μg/ml, and 50 μg/ml), followed by incubation under the same conditions for 72 hours. After the incubation supernatant was removed, the cells were immobilized using ethanol, and washed three times with phosphate buffer saline (PBS). The wash solution was removed, and the cells were stained through the treatment with colorimetric SRB solution. After the cells were sufficiently washed with 1% acetic acid, the cells were observed using a microscope to observe the state of living cells. The absorbance was read at UV light of 560 nm, thereby measuring the survival conditions of cells

Experiment [2] deals with human hair follicle germinal matrix cells (HFGMC). Briefly: Cell proliferation assay (SRB), HFGMC. The experiment is classed as cell-based. The note with it: 1, 10 and 50 μg/ml, 72 hours. As to the method:
as §2

For another experiment, the system named is KGF. As to the kind of experiment: Western blotting of hair growth protein KGF. The note with it: HFDPC, 0.1-50 μg/ml, 24 hours. The class given is cell-based, human. As to the method:
(§3) In order to observe the changes in the expression of IGF1, KGF, and Wnt3a, which are proteins involved in the development of hair roots in the human hair follicle dermal papilla cells, the cells were treated with the peptides of the present invention for 24 hours, and then subjected to western blotting using specific antibodies, thereby observing the changes in hair growth-related proteins.
(§4) The cells were stabilized by the incubation overnight, and then treated with the peptides at different concentrations (0.1-50 μg/ml) for 24 hours. The cells were treated with the cell lysis buffer to obtain a lysate, followed by protein quantification, and then western blotting was performed with respect to IGF-1, KGF, and Wnt3a.
(§5) The test was carried out using anti-IGF-1 antibody (Santa Cruz Biotechnology, USA), anti-KGF antibody (Santa Cruz Biotechnology, USA), and anti-Wnt3a antibody (Santa Cruz Biotechnology, USA).

A further experiment concerns Phospho-PI3K. As to the kind of experiment: Western blotting using osteoblasts (PI3K phosphorylation). The experiment is classed as cell-based. Particulars: mouse osteoblast line, 50 μg/ml, 15 minutes. As to the method:
The cells were treated with the peptides at 50 μg/ml for 15 minutes (positive control: HGF 50 ng/ml). The cells were treated with the cell lysis buffer to obtain a lysate, followed by protein quantification, and then western blotting was performed with respect to Phospho-PI3K (P-PI3K) using anti-pPI3K antibody (Santa Cruz Biotechnology, USA).

Another experiment has as its system Ha3-II and keratin 14. As to the kind of experiment: RT-PCR of keratinocyte differentiation markers in HaCaT cells. The class given is cell-based, human. The note with it: HaCaT, 0.1, 1 and 10 μg/ml, 24 hours. As to the method: The cells were treated with the peptides at different concentrations (0.1 μg/ml, 1 μg/ml, and 10 μg/ml), and then incubated in an incubator at 37° C. for 24 hours. […] RT-PCR was carried out using primers of respective markers (Ha3-II and keratin 14) and PCR pre-mix (Intron) to measure the changes in the expression of the markers.
Target-specific primer sequences used in PCR for keratinocyte differentiation markers were as follows: Ha3-II forward primer sequence, 5′-[…]-3′ and Ha3-II reverse primer, 5′-[…]-3′ (annealing temperature, 60° C.); Keratin14 forward primer sequence, 5′-[…]-3′ and Keratin14 reverse primer, 5′-[…]-3′ (annealing temperature, 60° C.)

In a further experiment the test system is IL-1β. As to the kind of experiment: IL-1β ELISA in THP-1 cells treated with TNF-α. The class given is cell-based, human. The note with it: 10 μg/ml pre-treatment 30 minutes, 50 ng/ml TNF-α, 24 hours. As to the method:
(§6) The human monocytes, THP-1 cells were seeded on a 24-well plate at a density of 2×10^6 cells/well. After incubation overnight, the cells were pre-treated with the samples at 10 μg/ml for 30 minutes, and treated with 50 ng/ml TNF-α, followed by incubation for 24 hours. The cell incubation medium was obtained, followed by centrifugation at 13,000 rpm for 10 minutes at 4° C., and then the supernatant was separated. ELISA was carried out using IL-1b and IL-8 ELISA kit (R&D system).

The subject of experiment [3] is human umbilical vein endothelial cells (HUVEC). As to the kind of experiment: Cell proliferation assay (SRB), HUVEC. The class given is cell-based. The note with it: 1, 10 and 50 μg/ml, 72 hours. As to the method:
as §2

A further experiment concerns PI3K. Briefly: Western blotting of cell signaling material, PI3K. The class given is cell-based, human. The note with it: HFDPC, 1 and 10 μg/ml, 30 minutes and 60 minutes. As to the method:
(§7) In order to observe the changes in the phosphorylation of ERK and the expression of PI3K, which are main signaling materials involved in cell proliferation in the human hair follicle dermal papilla cells, the cells were treated with the peptides of the present invention for 30 minutes and 60 minutes, and then subjected to western blotting using specific antibodies, thereby observing the pERK and PI3K changes. The test was carried out using anti-pERK antibody (Santa Cruz Biotechnology, USA) and anti-pPI3K antibody (Santa Cruz Biotechnology, USA).
(§8) The cells were treated with the cell lysis buffer to obtain a lysate, followed by protein quantification, and then western blotting was performed with respect to Phospho-ERK (pERK), PI3K, and β-catenin.

For a further experiment, the system named is Phospho-ERK (pERK). As to the kind of experiment: Western blotting of cell signaling material, ERK phosphorylation. The class given is cell-based, human. Particulars: HFDPC, 1 and 10 μg/ml, 30 minutes and 60 minutes. As to the method: as §7, §8
The subject of the next experiment is Wnt3a. Briefly: Western blotting of hair growth protein Wnt3a. Particulars: HFDPC, 0.1-50 μg/ml, 24 hours. The class given is cell-based, human. As to the method: as §3, §4, §5
In the next experiment the test system is IL-8. As to the kind of experiment: IL-8 ELISA in THP-1 cells treated with TNF-α. The experiment is classed as cell-based, human. Particulars: 10 μg/ml pre-treatment 30 minutes, 50 ng/ml TNF-α, 24 hours. As to the method: as §6
Another experiment concerns TNFR. Briefly: Receptor binding assay (TNFR), ELISA. Particulars: peptide coated 50 μg/25 μl, O.D. 450 nm, positive control TNF-α.
A further experiment relates to IGF-1. Briefly: Western blotting of hair growth protein IGF-1. The experiment is classed as cell-based, human. Particulars: HFDPC, 0.1-50 μg/ml, 24 hours. As to the method:
as §3, §4, §5

The next experiment has as its system β-catenin. As to the kind of experiment: Western blotting of cell signaling material, β-catenin. The experiment is classed as cell-based, human. Particulars: HFDPC, 1 and 10 μg/ml, 30 minutes and 60 minutes. As to the method: as §7, §8
A further experiment has as its system Phospho-smad1/5/8. Briefly: Western blotting using osteoblasts (Smad1/5/8 phosphorylation). The experiment is classed as cell-based. Particulars: mouse osteoblast line, 50 μg/ml, 15 minutes and 30 minutes. As to the method: The cells incubated overnight were incubated in a serum-free medium for 24 hours, and then treated with the peptide at 50 μg/ml for 15 minutes and 30 minutes (positive control; BMP4 50 ng/ml). The cells were treated with the cell lysis buffer to obtain a lysate, followed by protein quantification, and then western blotting was performed with respect to Phospho-smad1/5/8 (P-smad1/5/8) using anti-p-smad1/5/8 antibody (Santa Cruz Biotechnology, USA).

Another experiment addresses T2, BMPR-IB (Homo sapiens, UniProt O00238).
T2 construct: purchased R&D Systems
Briefly: Receptor binding assay (BMPR), ELISA. The note with it: peptide coated 50 μg/25 μl, O.D. 450 nm, positive control BMP4. As to the method: as §1, with “In” for “On”, “BMPR-IB” for “HGFR”, “determined” for “read”

T2 sequence (O00238 14-502): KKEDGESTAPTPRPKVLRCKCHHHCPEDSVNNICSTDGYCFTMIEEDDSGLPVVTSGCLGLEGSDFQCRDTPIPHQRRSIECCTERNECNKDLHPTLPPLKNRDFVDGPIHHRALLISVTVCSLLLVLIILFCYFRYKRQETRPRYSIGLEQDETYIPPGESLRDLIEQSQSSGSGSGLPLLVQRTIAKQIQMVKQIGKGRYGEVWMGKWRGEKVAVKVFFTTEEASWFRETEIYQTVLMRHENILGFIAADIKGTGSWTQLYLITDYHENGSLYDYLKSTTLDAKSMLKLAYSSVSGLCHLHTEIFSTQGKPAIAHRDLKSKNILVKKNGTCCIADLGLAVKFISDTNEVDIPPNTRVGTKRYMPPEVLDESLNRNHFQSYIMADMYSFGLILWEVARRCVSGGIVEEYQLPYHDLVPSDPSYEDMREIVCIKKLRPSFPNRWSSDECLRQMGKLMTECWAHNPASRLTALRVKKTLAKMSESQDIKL

`C[C@]12CCC(=O)C[C@@H]1CC[C@@H]1[C@@H]2CC[C@]2(C)[C@@H](O)CC[C@@H]12` [DHT, dihydrotestosterone, reference compound]: the “expression of DKK-1” value in the experiment with DKK-1 (treatment with DHT 5 μg/ml alone) is given as “increased”.

As to “NH2-Ala-Cys-Asp-Gly-Arg-Thr-Gln-Ala-Leu-Cys-COOH (H-ACDGRTQALC-OH; cysteine pairing not given here) [SEQ ID NO: 3]”, in the experiment with HGFR, the “binding affinity on HGFR” value is “high binding affinity”. For the same compound, in experiment [1], the “cell proliferation, HFDPC” value is “increased in a concentration-dependent manner”. In addition, the “cell proliferation, HFGMC” value in [2] is “increased in a concentration-dependent manner”. In addition, the “expression of KGF” value in the experiment with KGF is given as “increased”. In addition, in the experiment with Phospho-PI3K, the “phosphorylation of PI3K by HGFR signal stimulation” value is on record as “increased”. For the same compound, in the experiment on DKK-1 (5 μg/ml DHT together with peptide 1 and 10 μg/ml), the “expression of DKK-1 increased by DHT” value is “reduced”. For the same compound, the “mRNA expression levels of differentiation markers Ha3-II and keratin 14” value with Ha3-II and keratin 14 is recorded as “keratinocyte differentiation promoting effect”. Further, in the experiment with IL-1β, the “expression of IL-1β increased by TNF-α treatment” value is listed as “inhibited”. The “cell proliferation, HUVEC” value in [3] is “increased in a concentration-dependent manner”. The “level of PI3K” value in the experiment with PI3K was “increased”. In the experiment on Phospho-ERK (pERK), the “phosphorylation of ERK” value is reported as “increased”. Moreover, the “expression of Wnt3a” value with Wnt3a is reported as “increased”. Also, in the experiment with IL-8, the “expression of IL-8 increased by TNF-α treatment” value is “inhibited”. Besides, in the experiment on TNFR, the “binding affinity to TNFR” value is “high binding affinity”. In addition, the “expression of IGF-1” value with IGF-1 is on record as “increased”. For the same compound, the “expression of β-catenin” value in the experiment on β-catenin was “increased”.

With “NH2-Ala-Cys-Phe-Thr-Arg-Thr-Ser-His-Ala-Cys-COOH (H-ACFTRTSHAC-OH; cysteine pairing not given here) [SEQ ID NO: 2]”, the “expression of IL-1β increased by TNF-α treatment” value in the experiment on IL-1β was “inhibited”. The “phosphorylation of Smad1/5/8 by BMPR signal stimulation” value in the experiment on Phospho-smad1/5/8 is given as “increased”. Further, the “binding affinity on BMPR” value with BMPR-IB is “high binding affinity”. The “expression of IL-8 increased by TNF-α treatment” value in the experiment on IL-8 is given as “inhibited”. Further, in the experiment on TNFR, the “binding affinity to TNFR” value was “high binding affinity”.

These data come from patent US10238710B2, “Peptide having anti-inflammatory, osteogenic and hair growth promoting activities, and use of same” (CAREGEN CO., LTD., priority 2014, dated 2019).
